Laboratory results: PubChem BioAssay AID256 (DTP/NCI, 2004)
“And” between values parts separate entries of the source, which are not always exact repeats. Equal entries are not always repeated. Toxic doses and inconclusive results are not listed. The calls were made as follows: active = survival T/C of 150% or more; inactive = T/C below 125% in these data.

Test system: CD2F1 mice, L1210 leukemia ip, survival T/C
Assay: NCI In Vivo Anticancer Drug Screen. Data for tumor model L1210 Leukemia (intraperitoneal) in CD2F1 (CDF1) mice
Settings: higher = longer survival
Method in brief: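 Each value reflects a quotient of treated over vehicle control outcomes in mice with a transplanted tumor.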

[1] = endpoint: mean survival time, dose: 100.0 mg/kg/injection, schedule: Q01DX001 (ip), vehicle: saline with Tween-80
[2] = endpoint: mean survival time, dose: 200.0 mg/kg/injection, schedule: Q01DX001 (ip), vehicle: saline with Tween-80
[3] = endpoint: mean survival time, dose: 400.0 mg/kg/injection, schedule: Q01DX001 (ip), vehicle: saline with Tween-80
[4] = endpoint: mean survival time, dose: 100.0 mg/kg/injection, schedule: Q01DX001 (ip), vehicle: saline
[5] = endpoint: mean survival time, dose: 200.0 mg/kg/injection, schedule: Q01DX001 (ip), vehicle: saline
[6] = endpoint: mean survival time, dose: 400.0 mg/kg/injection, schedule: Q01DX001 (ip), vehicle: saline
[7] = endpoint: mean survival time, dose: 100.0 mg/kg/injection, schedule: Q01DX009 (ip), vehicle: saline with Tween-80
[8] = endpoint: mean survival time, dose: 100.0 mg/kg/injection, schedule: Q04DX003 (ip), vehicle: saline with Tween-80
[9] = endpoint: mean survival time, dose: 200.0 mg/kg/injection, schedule: Q04DX003 (ip), vehicle: saline with Tween-80
[10] = endpoint: mean survival time, dose: 400.0 mg/kg/injection, schedule: Q04DX003 (ip), vehicle: saline with Tween-80
[11] = endpoint: mean survival time, dose: 25.0 mg/kg/injection, schedule: Q04DX002 (ip), vehicle: saline with Tween-80
[12] = endpoint: mean survival time, dose: 100.0 mg/kg/injection, schedule: Q04DX002 (ip), vehicle: saline with Tween-80

Measured: T/C

O=C1NC(CN2CCOCC2)C(=O)NC1CN1CCOCC1 (stereo not given)
inactive: endpoint: mean survival time, dose: 3.13 mg/kg/injection, schedule: Q01DX009 (ip), vehicle: water 105 % of control | endpoint: mean survival time, dose: 6.25 mg/kg/injection, schedule: Q01DX009 (ip), vehicle: water 105 % of control | endpoint: mean survival time, dose: 12.5 mg/kg/injection, schedule: Q01DX009 (ip), vehicle: water 103 % of control | endpoint: mean survival time, dose: 25.0 mg/kg/injection, schedule: Q01DX009 (ip), vehicle: water 100 % of control | endpoint: mean survival time, dose: 50.0 mg/kg/injection, schedule: Q01DX009 (ip), vehicle: water 101 % of control | endpoint: mean survival time, dose: 100.0 mg/kg/injection, schedule: Q01DX009 (ip), vehicle: water 106 % of control

FC(F)(F)S.[Hg]
inactive: endpoint: mean survival time, dose: 5.0 mg/kg/injection, schedule: Q04DX003 (ip), vehicle: saline 101 % of control | endpoint: mean survival time, dose: 10.0 mg/kg/injection, schedule: Q04DX003 (ip), vehicle: saline 97 % of control | endpoint: mean survival time, dose: 20.0 mg/kg/injection, schedule: Q04DX003 (ip), vehicle: saline 95 % of control

Nc1nc2c(ncn2CCCc2ccccc2)c(=O)[nH]1
inactive: [1] 94 % of control | [2] 94 % of control

CC(=O)Nc1nc(C)c(CC/C=C/c2ccc([N+](=O)[O-])cc2)c(Cl)n1
inactive: [1] 94 % of control | [2] 89 % of control | [3] 89 % of control

CC(C)(C)S(=O)O
inactive: [4] 101 % of control | [5] 94 % of control | [6] 100 % of control

FC(F)(F)/C([S-])=C(/[S-])C(F)(F)F.[Fe].[c-]1[c-][c-][cH-][c-]1
inactive: endpoint: mean survival time, dose: 75.0 mg/kg/injection, schedule: Q01DX001 (ip), vehicle: other 105 % of control | endpoint: mean survival time, dose: 150.0 mg/kg/injection, schedule: Q01DX001 (ip), vehicle: other 100 % of control

CN(C)B(B(N(C)C)N(C)C)N(C)C
inactive: [4] 105 % of control | [5] 97 % of control | [6] 101 % of control

O=S(=O)(NC1CCCC2C=CC=CC21)c1ccccc1 (stereo not given)
inactive: [1] 94 % of control | [2] 102 % of control | [3] 96 % of control

O=C(O)c1ccccc1N=Cc1ccccc1O
inactive: [7] 96 % of control | [8] 103 % of control | endpoint: mean survival time, dose: 200.0 mg/kg/injection, schedule: Q01DX009 (ip), vehicle: saline with Tween-80 96 % of control | [9] 113 % of control | endpoint: mean survival time, dose: 400.0 mg/kg/injection, schedule: Q01DX009 (ip), vehicle: saline with Tween-80 102 % of control | [10] 105 % of control

COC(=O)CCC(=O)NCCc1c[nH]c2ccccc12
inactive: [8] 98 % of control | [9] 93 % of control | [10] 98 % of control

N#CSCCN1C(=O)C2C3CCC(O3)C2C1=O (stereo not given)
inactive: [11] 103 % of control

CCc1cc(CC)c(CC)c(Br)c1CC
inactive: endpoint: mean survival time, dose: 50.0 mg/kg/injection, schedule: Q01DX009 (ip), vehicle: saline with Tween-80 98 % of control | [7] 108 % of control | [8] 98 % of control | [9] 101 % of control

COC1OC2COC(c3ccccc3)OC2/C(=N/O)C1[n+]1ccccc1 (stereo not given)
inactive: endpoint: mean survival time, dose: 25.0 mg/kg/injection, schedule: Q01DX001 (ip), vehicle: saline with Tween-80 94 % of control | endpoint: mean survival time, dose: 50.0 mg/kg/injection, schedule: Q01DX001 (ip), vehicle: saline with Tween-80 107 % of control | [1] 98 % of control and 102 % of control

N#Cc1cnn2ccn(C3OC(COC(=O)c4ccccc4)C(OC(=O)c4ccccc4)C3OC(=O)c3ccccc3)c12 (stereo not given)
inactive: endpoint: median survival time, dose: 50.0 mg/kg/injection, schedule: Q01DX005 (ip), vehicle: saline with Tween-80 90 % of control | endpoint: median survival time, dose: 100.0 mg/kg/injection, schedule: Q01DX005 (ip), vehicle: saline with Tween-80 98 % of control | endpoint: median survival time, dose: 200.0 mg/kg/injection, schedule: Q01DX005 (ip), vehicle: saline with Tween-80 94 % of control

Cc1c(O)c2c(c(O)c1Cc1cccc(C#N)c1)C(=O)c1ccccc1C2=O
inactive: endpoint: mean survival time, dose: 12.5 mg/kg/injection, schedule: Q01DX009 (ip), vehicle: Klucel (hydroxypropylcellulose) (HPC) 89 % of control | endpoint: mean survival time, dose: 25.0 mg/kg/injection, schedule: Q01DX009 (ip), vehicle: Klucel (hydroxypropylcellulose) (HPC) 90 % of control | endpoint: mean survival time, dose: 50.0 mg/kg/injection, schedule: Q01DX009 (ip), vehicle: Klucel (hydroxypropylcellulose) (HPC) 90 % of control | endpoint: mean survival time, dose: 200.0 mg/kg/injection, schedule: Q01DX009 (ip), vehicle: Klucel (hydroxypropylcellulose) (HPC) 89 % of control

O=C1C2=C(C(=O)C3=C1C1CCC3C1)C1CCC2C1
inactive: [11] 105 % of control | endpoint: mean survival time, dose: 50.0 mg/kg/injection, schedule: Q04DX002 (ip), vehicle: saline with Tween-80 101 % of control | [12] 108 % of control

CCCCCOP(N)(=O)OCCCCC
inactive: [12] 88 % of control | endpoint: mean survival time, dose: 200.0 mg/kg/injection, schedule: Q04DX002 (ip), vehicle: saline with Tween-80 92 % of control | endpoint: mean survival time, dose: 400.0 mg/kg/injection, schedule: Q04DX002 (ip), vehicle: saline with Tween-80 100 % of control
